ChEMBL document CHEMBL1201862, “PubChem BioAssay data set” (2004)
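Dose response: 5 concentrations. Exposure: 48 h. Format: 96-well plates. Endpoint: linear interpolation; highest concentration if not reached. GI50 is the concentration that inhibits growth by half.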 Active and inactive are the calls of the source. Cut-off read from the data, not from the text of the source: active = GI50 up to about 1.1 µM and inactive = higher.

Assays:
Assay in all cases: DTP human tumour cell line panel, 48 h
CAKI-1 = test system: CAKI-1
DU-145 = test system: DU-145
EKVX = test system: EKVX
HOP-62 = test system: HOP-62
HOP-92 = test system: HOP-92
LOX IMVI = test system: LOX IMVI
M14 = test system: M14
MDA-MB-435 = test system: MDA-MB-435
Malme-3M = test system: Malme-3M
NCI-H522 = test system: NCI-H522
NCI/ADR-RES = test system: NCI/ADR-RES
OVCAR-3 = test system: OVCAR-3
OVCAR-5 = test system: OVCAR-5
SF-539 = test system: SF-539
SNB-19 = test system: SNB-19
SNB-75 = test system: SNB-75
SW-620 = test system: SW-620
U-251 = test system: U-251
UACC-257 = test system: UACC-257
UACC-62 = test system: UACC-62

Measured: GI50

CC(C)(C)OCC1NC(=O)[C@@H]2Cc3c([nH]c4ccccc34)C(c3ccccc3)N2C1=O (stereo not given in full)
inactive: CAKI-1 > 50 µM | DU-145 > 50 µM | EKVX > 50 µM | HOP-62 > 50 µM | HOP-92 > 50 µM | LOX IMVI > 50 µM | M14 > 50 µM | MDA-MB-435 > 50 µM | Malme-3M > 50 µM | NCI-H522 > 50 µM | NCI/ADR-RES > 50 µM | OVCAR-3 > 50 µM | OVCAR-5 > 50 µM | SF-539 30.1 µM | SNB-19 > 50 µM | SNB-75 > 50 µM | SW-620 > 50 µM | U-251 > 50 µM | UACC-257 > 50 µM | UACC-62 > 50 µM

O=[N+]([O-])c1ccc2c3ccccc3[s+]([O-])c2c1 (stereo not given)
inactive: CAKI-1 > 100 µM | DU-145 > 100 µM | EKVX 35.2 µM | HOP-62 > 100 µM | HOP-92 > 100 µM | LOX IMVI > 100 µM | M14 > 100 µM | MDA-MB-435 > 100 µM | Malme-3M 30.5 µM | NCI-H522 > 100 µM | NCI/ADR-RES > 100 µM | OVCAR-3 33 µM | OVCAR-5 > 100 µM | SF-539 > 100 µM | SNB-19 > 100 µM | SNB-75 > 100 µM | SW-620 72.4 µM | U-251 > 100 µM | UACC-257 > 100 µM | UACC-62 > 100 µM

NS(=O)(=O)c1ccc(NC(=O)N/N=C/c2ccccc2[N+](=O)[O-])cc1
inactive: CAKI-1 44.8 µM | DU-145 72.3 µM | EKVX 61 µM | HOP-62 40.8 µM | HOP-92 65.3 µM | LOX IMVI 44.7 µM | M14 25.5 µM | MDA-MB-435 19 µM | Malme-3M 78.2 µM | NCI-H522 41.8 µM | NCI/ADR-RES 33.3 µM | OVCAR-3 30.1 µM | OVCAR-5 > 100 µM | SF-539 38.5 µM | SNB-19 44 µM | SNB-75 > 100 µM | SW-620 36.1 µM | U-251 43.1 µM | UACC-257 79.4 µM | UACC-62 75.3 µM

O=C(O)[C@H](CCC[C@H]1C(=O)O[C@H](c2ccccc2)[C@H](c2ccccc2)N1C(=O)OCc1ccccc1)N[C@@H](c1ccccc1)[C@H](O)c1ccccc1
inactive: CAKI-1 > 100 µM | DU-145 > 100 µM | EKVX 38.6 µM | HOP-62 19 µM | HOP-92 22.3 µM | LOX IMVI 22.9 µM | M14 > 100 µM | MDA-MB-435 20.7 µM | Malme-3M 21.2 µM | NCI-H522 15.5 µM | NCI/ADR-RES > 100 µM | OVCAR-3 23.7 µM | OVCAR-5 38.4 µM | SF-539 18.6 µM | SNB-19 30.3 µM | SNB-75 17 µM | SW-620 25.1 µM | U-251 16 µM | UACC-257 39.7 µM | UACC-62 22.1 µM

NCCSC(c1ccccc1)c1ccccc1
inactive: CAKI-1 24.9 µM | DU-145 29.2 µM | EKVX 30.7 µM | HOP-62 17.5 µM | HOP-92 10.6 µM | LOX IMVI 16.3 µM | M14 14.7 µM | MDA-MB-435 19.1 µM | Malme-3M 19.5 µM | NCI-H522 19.1 µM | NCI/ADR-RES 31.3 µM | OVCAR-3 19.1 µM | OVCAR-5 17.2 µM | SF-539 20.7 µM | SNB-19 51.9 µM | SNB-75 24.5 µM | SW-620 18.5 µM | U-251 18.2 µM | UACC-257 16.3 µM | UACC-62 17 µM

COC(=O)c1sc2c(Cl)c(Cl)sc2c1Cl
inactive: CAKI-1 > 100 µM | DU-145 > 100 µM | EKVX > 100 µM | HOP-62 30.7 µM | HOP-92 > 100 µM | LOX IMVI > 100 µM | M14 > 100 µM | MDA-MB-435 > 100 µM | Malme-3M > 100 µM | NCI-H522 > 100 µM | NCI/ADR-RES > 100 µM | OVCAR-3 93.8 µM | OVCAR-5 > 100 µM | SF-539 66.7 µM | SNB-19 > 100 µM | SNB-75 > 100 µM | SW-620 > 100 µM | U-251 97.5 µM | UACC-257 > 100 µM | UACC-62 > 100 µM

C1=N\c2ccc(cc2)-c2ccc(cc2)/N=C\c2ccccc2OCc2cccc(n2)COc2ccccc2/1
inactive: CAKI-1 > 58.5 µM | DU-145 > 80.5 µM | EKVX 36.4 µM | HOP-62 5.27 µM | HOP-92 10.9 µM | LOX IMVI > 44.2 µM | M14 36.4 µM | MDA-MB-435 > 100 µM | Malme-3M > 82.8 µM | NCI-H522 23.8 µM | NCI/ADR-RES > 100 µM | OVCAR-3 > 100 µM | OVCAR-5 > 63.5 µM | SF-539 26.7 µM | SNB-19 13.9 µM | SNB-75 2.83 µM | SW-620 > 100 µM | U-251 7.59 µM | UACC-257 > 100 µM | UACC-62 39.4 µM

COc1cccc2c1Cc1cc(-c3ccccc3)[n+](C)n1-2
inactive: CAKI-1 66.8 µM | DU-145 30.1 µM | EKVX 1.5 µM | HOP-62 42.3 µM | HOP-92 13.7 µM | LOX IMVI 10 µM | M14 8.43 µM | MDA-MB-435 11.8 µM | Malme-3M 10.3 µM | NCI-H522 4.93 µM | NCI/ADR-RES 84.7 µM | OVCAR-3 2.92 µM | OVCAR-5 23.9 µM | SF-539 5.4 µM | SNB-19 28.9 µM | SNB-75 20 µM | SW-620 6.1 µM | U-251 5.36 µM | UACC-257 3.58 µM | UACC-62 15 µM

CN(Cc1cnc2nc(N)nc(N)c2n1)c1ccc(C(=O)NC(CCC(=O)NC(P(=O)(O)O)P(=O)(O)O)C(=O)O)cc1 (stereo not given)
inactive: CAKI-1 12.4 µM | DU-145 45.3 µM | EKVX > 100 µM | HOP-62 59.8 µM | HOP-92 > 100 µM | LOX IMVI 8.32 µM | M14 8.34 µM | MDA-MB-435 30 µM | Malme-3M > 100 µM | NCI-H522 29 µM | NCI/ADR-RES 40.8 µM | OVCAR-3 > 100 µM | OVCAR-5 45.8 µM | SF-539 32.6 µM | SNB-19 9.18 µM | SNB-75 > 100 µM | SW-620 6.84 µM | U-251 6.43 µM | UACC-257 99.1 µM | UACC-62 > 100 µM
